Values quoted from earlier work, collected in US20210361620A1 (Biosential, Inc., priority 2018, published 2021).

Tests used:
[1] = test system: subjects with mild insomnia or longer-than-average sleep latency; conditions: for effect on sleep (hypnotic effect): ingestion of a sufficient quantity
humans = conditions: for potential side effects of supplementation: tryptophan: dose not given, melatonin: 1 mg to 5 mg, uncommon
serum albumin = serum albumin (Homo sapiens, UniProt P02768); conditions: after ingestion and absorption
serum albumin, sequence (P02768 25-609): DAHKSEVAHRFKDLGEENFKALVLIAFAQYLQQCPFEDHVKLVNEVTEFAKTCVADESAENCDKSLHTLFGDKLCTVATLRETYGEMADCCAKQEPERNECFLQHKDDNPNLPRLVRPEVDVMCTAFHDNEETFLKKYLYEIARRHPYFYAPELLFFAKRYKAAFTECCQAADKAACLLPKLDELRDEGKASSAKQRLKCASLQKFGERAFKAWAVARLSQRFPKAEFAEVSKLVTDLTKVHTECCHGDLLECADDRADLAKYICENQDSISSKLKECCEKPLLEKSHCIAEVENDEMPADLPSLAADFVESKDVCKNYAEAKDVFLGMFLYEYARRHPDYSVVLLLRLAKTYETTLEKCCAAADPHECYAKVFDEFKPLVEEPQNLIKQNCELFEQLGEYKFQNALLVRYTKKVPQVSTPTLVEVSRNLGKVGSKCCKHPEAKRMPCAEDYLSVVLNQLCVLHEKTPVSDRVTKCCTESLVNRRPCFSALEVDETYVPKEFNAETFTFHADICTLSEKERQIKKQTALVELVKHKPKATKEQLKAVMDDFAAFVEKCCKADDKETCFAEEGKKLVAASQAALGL

Structure (SMILES)	effect on glucose metabolism (rats)	effect on sleep (hypnotic effect) [1]	side effects of supplementation during the day (humans; daytime use)	potential side effects of supplementation (humans)	fraction bound to serum albumin in the circulation (serum albumin)	fraction circulating as free tryptophan (serum albumin) [%]	effect on sleep architecture at very high dose ([1]; doses above 12,000 mg)
COc1ccc2[nH]cc(CCNC(C)=O)c2c1 [melatonin]	antihyperglycemic effect	reduce sleep latency, increase sleep duration and efficiency, and regulate the sleep-wake cycle	sleepiness and hypothermia	drowsiness, headache, dizziness and nausea	–	–	–
N[C@@H](Cc1c[nH]c2ccccc12)C(=O)O [tryptophan]	–	consistently reduces sleep latency	–	drowsiness and minimal weight loss	approximately 80%	20	disrupt sleep architecture
